What was measured:
[1] = target: T1, NLRP3 (Homo sapiens, UniProt Q96P20); experiment: THP-1 cells pyroptosis assay; format: cell-based; design: Seed THP-1 cells (25,000 cells/well) containing 1.0 μg/ml LPS; host or cells: THP-1 cells, LPS-primed, nigericin-stimulated; settings: 1.0 μg/ml LPS, compound 3 hrs, nigericin 5 μM 1 hr, resazurin readout
Protocol: THP-1 cells (ATCC #TIB-202) were grown in RPMI containing L-glutamine (Gibco #11835) supplemented with 1 mM sodium pyruvate (Sigma #S8636) and penicillin (100 units/ml)/streptomycin (0.1 mg/ml) (Sigma #P4333) in 10% Fetal Bovine Serum (FBS) (Sigma #F0804). The cells were routinely passaged and grown to confluency (˜10^6 cells/ml). On the day of the experiment, THP-1 cells were harvested and resuspended into RPMI medium (without FBS). The cells were then counted and viability (>90%) checked by Trypan blue (Sigma #T8154). Appropriate dilutions were made to give a concentration of 625,000 cells/ml. To this diluted cell solution was added LPS (Sigma #L4524) to give a […] Final Assay Concentration (FAC). 40 μl of the final preparation was aliquoted into each well of a 96-well plate. The plate thus prepared was used for compound screening.
The following method step-by-step assay was followed for compound screening. • 1. Seed THP-1 cells (25,000 cells/well) containing 1.0 μg/ml LPS in 40 μl of RPMI medium (without FBS) in 96-well, black walled, clear bottom cell culture plates coated with poly-D-lysine (VWR #734-0317) • 2. Add 5 μl compound (8 points half-log dilution, with 10 μM top dose) or vehicle (DMSO 0.1% FAC) to the appropriate wells • 3. Incubate for 3 hrs at 37° C., 5% CO2 • 4. Add 5 μl nigericin (Sigma #N7143) (FAC 5 μM) to all wells • 5. Incubate for 1 hr at 37° C., 5% CO2 • 6. At the end of the incubation period, spin plates at 300×g for 3 mins and remove supernatant • 7. Then add 50 μl of resazurin (Sigma #R7017) (FAC 100 μM resazurin in RPMI medium without FBS) and incubate plates for a further 1-2 hrs at 37° C. and 5% CO2 • 8. Plates were read in an Envision reader at Ex 560 nm and Em 590 nm • 9. IC50 data is fitted to a non-linear regression equation (log inhibitor vs response-variable slope 4-parameters) 96-well Plate Map

[2] = target: T1, NLRP3; experiment: Human whole blood IL-1β release assay; format: cell-based; design: Human whole blood in Li-heparin tubes was obtained from healthy donors; from tissue; host or cells: human whole blood from healthy volunteer donors, LPS-primed, nigericin-stimulated; settings: 1 μg/ml LPS, compound 3 hrs, nigericin 10 μM 1 hr, IL-1β in supernatant (AlphaLisa), read-out: HWB IC50
Protocol: For systemic delivery, the ability to inhibit NLRP3 when the compounds are present within the bloodstream is of great importance. For this reason, the NLRP3 inhibitory activity of a number of compounds in human whole blood was investigated in accordance with the following protocol.
Human whole blood in Li-heparin tubes was obtained from healthy donors from a volunteer donor panel. • 1. Plate out 80 μl of whole blood containing 1 μg/ml of LPS in 96-well, clear bottom cell culture plate (Corning #3585) • 2. Add 10 μl compound (8 points half-log dilution with 10 μM top dose) or vehicle (DMSO 0.1% FAC) to the appropriate wells • 3. Incubate for 3 hrs at 37° C., 5% CO2 • 4. Add 10 μl nigericin (Sigma #N7143) (10 μM FAC) to all wells • 5. Incubate for 1 hr at 37° C., 5% CO2 • 6. At the end of the incubation period, spin plates at 300×g for 5 mins to pellet cells and remove 20 μl of supernatant and add to 96-well v-bottom plates for IL-1β analysis (note: these plates containing the supernatants can be stored at −80° C. to be analysed at a later date) • 7. IL-1β was measured according to the manufacturer protocol (Perkin Elmer-AlphaLisa IL-1 Kit AL220F-5000) • 8. IC50 data is fitted to a non-linear regression equation (log inhibitor vs response-variable slope 4-parameters)

T1 sequence (Q96P20 whole entry): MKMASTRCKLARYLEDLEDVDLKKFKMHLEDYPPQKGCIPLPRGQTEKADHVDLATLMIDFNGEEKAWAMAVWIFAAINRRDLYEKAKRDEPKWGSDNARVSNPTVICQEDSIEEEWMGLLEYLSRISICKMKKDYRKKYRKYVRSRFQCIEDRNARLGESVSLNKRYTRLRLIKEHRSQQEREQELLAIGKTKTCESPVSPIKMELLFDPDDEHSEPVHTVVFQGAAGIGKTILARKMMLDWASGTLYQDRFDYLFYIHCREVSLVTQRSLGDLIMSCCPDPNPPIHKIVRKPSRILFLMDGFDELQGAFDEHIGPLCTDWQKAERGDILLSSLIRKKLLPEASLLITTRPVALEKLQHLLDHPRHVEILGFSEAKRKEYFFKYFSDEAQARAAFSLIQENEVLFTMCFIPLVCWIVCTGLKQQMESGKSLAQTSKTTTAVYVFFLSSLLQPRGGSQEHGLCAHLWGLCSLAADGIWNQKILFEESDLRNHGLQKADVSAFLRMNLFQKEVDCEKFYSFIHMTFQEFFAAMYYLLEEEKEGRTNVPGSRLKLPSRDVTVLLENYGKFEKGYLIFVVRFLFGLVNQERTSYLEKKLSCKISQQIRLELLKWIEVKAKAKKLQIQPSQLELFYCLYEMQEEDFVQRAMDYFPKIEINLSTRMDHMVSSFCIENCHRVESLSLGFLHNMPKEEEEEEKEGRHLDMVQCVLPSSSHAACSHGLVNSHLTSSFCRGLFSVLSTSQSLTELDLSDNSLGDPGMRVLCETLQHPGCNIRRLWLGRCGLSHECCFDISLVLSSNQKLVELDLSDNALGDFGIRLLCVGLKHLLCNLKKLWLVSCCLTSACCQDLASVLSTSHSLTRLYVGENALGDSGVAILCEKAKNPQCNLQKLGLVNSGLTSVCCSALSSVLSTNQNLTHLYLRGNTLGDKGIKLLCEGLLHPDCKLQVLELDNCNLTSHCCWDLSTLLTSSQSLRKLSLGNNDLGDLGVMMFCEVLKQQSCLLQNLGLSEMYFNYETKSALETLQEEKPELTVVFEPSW

Row | SMILES | IC50 [1] | IC50 [2]
1 | CN1CCCOc2cc(ccn2)-c2ccc3c(c2Nc2nnc([nH]2)S(=O)(=O)N2CCC1CC2)CCC3 [Example 1, 26-methyl-22-oxa-2λ^6-thia-1,4,5,7,20,26,33-heptazahexacyclo-[25.2.2.1^3,6.1^17,21.0^8,16.0^9,13]tritriaconta-3,6(33),8,13,15,17,19,21(32)-octaene 2,2-dioxide] | ≤ 5000 nM | ≤ 5000 nM
2 | O=S1(=O)c2nnc([nH]2)Nc2c(ccc3c2CCC3)-c2ccnc(c2)OCCCN2CCC3(C2)CN1C3 [Example 2, 26-oxa-16λ^6-thia-11,13,14,17,22,28,34-heptazaheptacyclo-[25.3.1.1^12,15.1^17,19.1^19,22.0^2,10.0^5,9]tetratriaconta-1(30),2,4,9,12,14,27(31),28-octaene 16,16-dioxide] | ≤ 100 nM | ≤ 100 nM
3 | O=S1(=O)c2nnc([nH]2)Nc2c(ccc3c2CCC3)-c2ccnc(c2)OCCN2CCC3(C2)CN1C3 [Example 3, 25-oxa-16λ^6-thia-11,13,14,17,22,27,33-heptazaheptacyclo-[24.3.1.1^12,15.1^17,19.1^19,22.0^2,10.0^5,9]tritriaconta-1(29),2,4,9,12,14,26(30),27-octaene 16,16-dioxide] | ≤ 100 nM | ≤ 500 nM
4 | Cc1cc2c(c3c1-c1ccnc(c1)OCCCN1CCC4(C1)CN(C4)S(=O)(=O)c1nnc([nH]1)N3)CCC2 [Example 4, 3-methyl-26-oxa-16λ^6-thia-11,13,14,17,22,28,34-heptazaheptacyclo-[25.3.1.1^12,15.1^17,19.1^19,22.0^2,10.0^5,9]tetratriaconta-1(30),2,4,9,12,14,27(31),28-octaene 16,16-dioxide] | ≤ 100 nM | ≤ 500 nM
5 | CC1(C)COc2cc(ccn2)-c2ccc3c(c2Nc2nnc([nH]2)S(=O)(=O)c2ccn1n2)CCC3 [Example 6, 21,21-dimethyl-23-oxa-16λ^6-thia-11,13,14,20,25,29,30-heptazahexacyclo-[22.3.1.1^12,15.1^17,20.0^2,10.0^5,9]triaconta-1(27),2,4,9,12(30),14,17(29),18,24(28),25-decaene 16,16-dioxide] | ≤ 5000 nM | 
6 | CC1(C)CCOc2cc(ccn2)-c2ccc3c(c2Nc2nnc([nH]2)S(=O)(=O)c2ccn1n2)CCC3 [Example 7, 21,21-dimethyl-24-oxa-16λ^6-thia-11,13,14,20,26,30,31-heptazahexacyclo-[23.3.1.1^12,15.1^17,20.0^2,10.0^5,9]hentriaconta-1(28),2,4,9,12,14,17(30),18,25(29),26-decaene 16,16-dioxide] | ≤ 10000 nM | 
7 | CN1CCCCOc2cc(ccn2)-c2ccc3c(c2Nc2nnc([nH]2)S(=O)(=O)N2CCC1CC2)CCC3 [Example 13, 27-methyl-22-oxa-2λ^6-thia-1,4,5,7,20,27,34-heptaazahexacyclo-[26.2.2.1^3,6.1^17,21.0^8,16.0^9,13]tetratriaconta-3,5,8,13,15,17,19,21(33)-octaene-2,2-dioxide] | ≤ 1000 nM | 
8 | CN1CCOc2cc(ccn2)-c2ccc3c(c2Nc2nnc([nH]2)S(=O)(=O)N2CC[C@H](C1)C2)CCC3 [Example 14, (20R)-22-methyl-25-oxa-16λ^6-thia-11,13,14,17,22,27,32-heptaazahexacyclo[24.3.1.1^12,15.1^17,20.0^2,10.0^5,9]dotriaconta-1(29),2,4,9,12,14,26(30),27-octaene-16,16-dioxide] | ≤ 500 nM | 
9 | O=S1(=O)c2nnc([nH]2)Nc2c(ccc3c2CCC3)-c2ccnc(c2)OCCCN2CCC23CCN1CC3 [Example 15, 8-oxa-28λ^6-thia-4,10,23,25,26,29,34-heptaazaheptacyclo-[27.2.2.1^9,13.1^24,27.0^1,4.0^14,22.0^17,21]pentatriaconta-9(35),10,12,14,16,21,24,26-octaene-28,28-dioxide] | ≤ 100 nM | 
10 | CN(C)CC12CCCCOc3cc(ccn3)-c3ccc4c(c3Nc3nnc([nH]3)S(=O)(=O)N(C1)C2)CCC4 [Example 16, 19-[(dimethylamino)methyl]-24-oxa-16λ^6-thia-11,13,14,17,26,31-hexaazahexacyclo[23.3.1.1^12,15.1^17,19.0^2,10.0^5,9]hentriaconta-1(28),2,4,9,12,14,25(29),26-octaene-16,16-dioxide] | ≤ 1000 nM | 
11 | CN1CCCOc2cc(ccn2)-c2ccc3c(c2Nc2nnc([nH]2)S(=O)(=O)N2CC[C@H]1C2)CCC3 [Example 17, (20S)-21-methyl-25-oxa-16λ^6-thia-11,13,14,17,21,27,32-heptaazahexacyclo[24.3.1.1^12,15.1^17,20.0^2,10.0^0,9]dotriaconta-1(29),2,4,9,12,14,26(30),27-octaene-16,16-dioxide] | ≤ 500 nM | 
12 | O=S1(=O)c2nnc([nH]2)Nc2c(ccc3c2CCC3)-c2ccnc(c2)OCC2CN(C2)C2CCN1CC2 [Example 18, 6-oxa-26λ^6-thia-2,8,21,23,24,27,32-heptaazaheptacyclo-[25.2.2.1^2,4.1^7,11.1^22,25.0^12,20.1^15,19]tetratriaconta-7(33),8,10,12,14,19,22,24-octaene-26,26-dioxide] | ≤ 5000 nM | 
13 | O=S1(=O)c2nnc([nH]2)Nc2c(ccc3c2CCC3)-c2ccnc(c2)OCCCCN2CCC3(C2)CN1C3 [Example 19, 27-oxa-16λ^6-thia-11,13,14,17,22,29,35-heptaazaheptacyclo-[26.3.1.1^12,15.1^17,19.1^19,22.0^2,10.0^5,9]pentatriaconta-1(31),2,4,9,12,14,28(32),29-octaene-16,16-dioxide] | ≤ 500 nM | 
14 | O=S1(=O)c2nnc([nH]2)Nc2c(ccc3c2CCC3)-c2ccnc(c2)OCCCN2CCOCC23CCN1CC3 [Example 20] | ≤ 500 nM | 
15 | CN(C)CC12CCCCOc3cc(ccn3)-c3ccc4c(c3Nc3nnc([nH]3)S(=O)(=O)N(CC1)C2)CCC4 (stereo not shown) [Example 21, 20-[(dimethylamino)methyl]-25-oxa-16λ^6-thia-11,13,14,17,27,32-hexaazahexacyclo[24.3.1.1^12,15.1^17,20.0^2,10.0^5,9]dotriaconta-1(29),2,4,9,12,14,26(30),27-octaene-16,16-dioxide] | ≤ 1000 nM | 
16 | O=S1(=O)c2nnc([nH]2)Nc2c(ccc3c2CCC3)-c2ccnc(c2)OCCCN2C[C@@H]3C[C@H]2CN31 [Example 22, (19S,21S)-27-oxa-16λ^6-thia-11,13,14,17,23,29,33-heptaazaheptacyclo-[26.3.1.1^12,15.0^2,10.0^5,9.0^17,21.0^19,23]tritriaconta-1(31),2,4,9,12,14,28(32),29-octaene-16,16-dioxide] | ≤ 5000 nM | 
17 | O=S1(=O)c2nnc([nH]2)Oc2c(ccc3c2CCC3)-c2ccnc(c2)OCCCN2CCC3(C2)CN1C3 [Example 23, 11,26-dioxa-16λ^6-thia-13,14,17,22,28,34-hexaazaheptacyclo-[25.3.1.1^12,15.1^17,19.1^19,22.0^2,10.0^5,9]tetratriaconta-1(30),2,4,9,12,14,27(31),28-octaene-16,16-dioxide] | ≤ 5000 nM | 
18 | CC(C)c1cc(F)cc2c1Nc1nnc([nH]1)S(=O)(=O)N1CC3(CCN(CCCOc4cc-2ccn4)C3)C1 [Example 24, 4-fluoro-6-(propan-2-yl)-23-oxa-13λ^6-thia-8,10,11,14,19,25,31-heptaazahexacyclo[22.3.1.1^9,12.1^14,16.1^16,19.0^2,7]hentriaconta-1(27),2(7),3,5,9,11,24(28),25-octaene-13,13-dioxide] | ≤ 100 nM | 

Reference: patent US20230121952A1 (INFLAZOME LIMITED, priority 2020, published 2023)
